Tests used:
[1] = Cleanout test (residue in polyethylene bottles, acetonitrile extract, HPLC); type: physicochemical; conditions: for Cleanout rating (concentration of thifensulfuron-methyl in the acetonitrile solution): lower rating = more effective cleanout
Method: The test was conducted by dispersing in water a sample to produce a concentration that is normally used when applying the herbicide: 25% thifensulfuron-methyl. The sample was added to tap water (300 mL) in a 400 mL beaker and magnetically stirred for 2 minutes. The mixture was then stirred for 2 minutes, whereupon the resulting dispersion was dispensed in three 100 mL aliquots to 4-oz (118 mL) polyethylene bottles. The bottles were capped, inverted twice and allowed to stand overnight.
After standing overnight, each individual bottle was inverted twice and the liquid contents were then poured out. Tap water (10 mL) was added and the bottle was inverted until all sediment was re-suspended, whereupon the contents were poured out. Tap water (100 mL) was added and the bottle was inverted twice and then allowed to stand undisturbed for 10 minutes. The bottle was inverted twice more and the contents were poured out. Acetonitrile (10 mL) was added to the bottle to extract any remaining material. The acetonitrile solution was analyzed by reversed-phase liquid chromatography with UV detection. The cleanout rating (the concentration of thifensulfuron-methyl herbicide in the acetonitrile solution) is reported in % in Table 6 below.

[2] = Viscosity (stated in words, no method given); type: physicochemical

Structure (SMILES)	Cleanout rating (concentration of thifensulfuron-methyl in the acetonitrile solution) ([1]; OD formulation)	Cleanout rating (concentration of thifensulfuron-methyl in the acetonitrile solution) ([1]; SG formulation)	Cleanout rating (concentration of thifensulfuron-methyl in the acetonitrile solution) ([1]; WG formulation)	Viscosity, in words ([2]; listed as thifensulfuron-methyl in amorphous state)	Cleanout properties, in words ([1]; compared with known amorphous thifensulfuron-methyl product)	Viscosity, in words ([2]; listed as crystalline modification I of thifensulfuron-methyl)
COC(=O)c1sccc1S(=O)(=O)NC(=O)Nc1nc(C)nc(OC)n1 [Amorphous thifensulfuron-methyl, methyl 3-(4-methoxy-6-methyl-1,3,5-triazin-2-ylcarbamoylsulfamoyl)thiophene-2-carboxylate, reference compound]	26%	10%	13%	highly viscous	–	–
COC(=O)c1sccc1S(=O)(=O)NC(=O)Nc1nc(C)nc(OC)n1 [Thifensulfuron-methyl, crystalline modification I] [methyl 3-(4-methoxy-6-methyl-1,3,5-triazin-2-ylcarbamoylsulfamoyl)thiophene-2-carboxylate]	5%	0.1%	2%	–	markedly superior cleanout properties	significant decrease in its viscosity
